What was measured:
[1] = biological target: T1, Angiotensin-converting enzyme (Rattus norvegicus, UniProt P47820); assay: In vitro inhibition of angiotensin converting enzyme isolated from rat lung.; settings: read-out: I50
T1 sequence (P47820 whole entry): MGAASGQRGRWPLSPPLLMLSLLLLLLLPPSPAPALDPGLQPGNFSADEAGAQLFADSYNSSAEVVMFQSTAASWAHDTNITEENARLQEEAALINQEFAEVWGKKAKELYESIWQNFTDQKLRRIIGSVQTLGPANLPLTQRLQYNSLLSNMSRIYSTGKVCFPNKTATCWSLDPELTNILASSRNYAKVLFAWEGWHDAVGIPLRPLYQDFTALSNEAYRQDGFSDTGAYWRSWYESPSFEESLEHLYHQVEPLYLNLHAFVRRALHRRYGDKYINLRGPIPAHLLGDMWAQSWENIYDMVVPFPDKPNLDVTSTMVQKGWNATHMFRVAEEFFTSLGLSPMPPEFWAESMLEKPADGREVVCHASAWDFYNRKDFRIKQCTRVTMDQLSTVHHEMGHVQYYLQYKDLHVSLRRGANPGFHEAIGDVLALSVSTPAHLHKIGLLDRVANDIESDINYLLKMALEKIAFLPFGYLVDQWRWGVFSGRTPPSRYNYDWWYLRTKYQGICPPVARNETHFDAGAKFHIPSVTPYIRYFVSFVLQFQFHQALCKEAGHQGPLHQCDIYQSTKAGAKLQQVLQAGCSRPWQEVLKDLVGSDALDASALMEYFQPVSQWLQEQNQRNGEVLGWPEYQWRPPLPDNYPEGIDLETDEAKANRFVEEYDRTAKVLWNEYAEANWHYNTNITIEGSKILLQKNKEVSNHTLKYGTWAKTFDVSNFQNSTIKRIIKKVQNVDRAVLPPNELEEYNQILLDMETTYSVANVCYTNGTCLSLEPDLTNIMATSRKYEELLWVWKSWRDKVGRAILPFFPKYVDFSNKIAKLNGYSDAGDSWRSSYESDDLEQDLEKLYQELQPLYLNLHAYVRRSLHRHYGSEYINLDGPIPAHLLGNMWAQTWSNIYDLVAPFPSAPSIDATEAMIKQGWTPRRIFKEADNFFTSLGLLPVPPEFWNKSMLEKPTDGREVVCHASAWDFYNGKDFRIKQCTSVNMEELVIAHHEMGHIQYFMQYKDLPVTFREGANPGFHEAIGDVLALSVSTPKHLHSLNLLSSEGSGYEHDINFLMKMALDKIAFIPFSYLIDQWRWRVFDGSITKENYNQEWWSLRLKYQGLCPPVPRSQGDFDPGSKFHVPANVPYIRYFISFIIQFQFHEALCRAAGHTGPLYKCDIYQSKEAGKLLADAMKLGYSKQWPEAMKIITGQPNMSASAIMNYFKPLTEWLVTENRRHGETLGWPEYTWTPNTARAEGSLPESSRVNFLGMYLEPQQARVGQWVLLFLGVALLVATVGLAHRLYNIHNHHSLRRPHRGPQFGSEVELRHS

[2] = biological target: T2, Neprilysin (Rattus norvegicus, UniProt P07861); assay: In vitro inhibition of Neutral Endopeptidase isolated from rat kidney.; settings: read-out: I50
T2 sequence (P07861 whole entry): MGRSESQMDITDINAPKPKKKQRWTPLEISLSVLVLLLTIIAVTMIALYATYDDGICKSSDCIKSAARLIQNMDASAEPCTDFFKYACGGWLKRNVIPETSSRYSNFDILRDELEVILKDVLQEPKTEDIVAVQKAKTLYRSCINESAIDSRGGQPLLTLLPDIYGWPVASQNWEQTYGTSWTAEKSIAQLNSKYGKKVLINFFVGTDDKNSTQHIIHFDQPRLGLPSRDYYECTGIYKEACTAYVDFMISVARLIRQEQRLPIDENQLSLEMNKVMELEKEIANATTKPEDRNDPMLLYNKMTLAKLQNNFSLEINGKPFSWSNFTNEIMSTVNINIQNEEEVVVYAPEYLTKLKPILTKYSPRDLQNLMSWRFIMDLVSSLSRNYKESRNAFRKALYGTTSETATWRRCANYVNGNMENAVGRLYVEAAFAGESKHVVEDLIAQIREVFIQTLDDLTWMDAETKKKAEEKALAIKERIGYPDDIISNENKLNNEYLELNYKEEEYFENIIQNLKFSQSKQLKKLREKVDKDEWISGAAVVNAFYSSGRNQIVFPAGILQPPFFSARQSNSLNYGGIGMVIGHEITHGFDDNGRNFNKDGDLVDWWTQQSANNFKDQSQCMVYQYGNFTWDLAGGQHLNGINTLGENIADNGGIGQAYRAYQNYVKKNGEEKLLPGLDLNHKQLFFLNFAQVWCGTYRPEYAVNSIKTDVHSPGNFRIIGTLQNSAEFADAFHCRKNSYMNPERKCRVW

[3] = test system: Rattus norvegicus; assay: Effective dose required to inhibit angiotensin 1(AI) induced pressor response in normotensive rats when administered intravenously; format: functional; settings: iv

## O=C(O)CN1C[C@H](c2ccccc2)SC[C@H](NC(=O)[C@@H](S)Cc2ccccc2)C1=O
[1]
  IC50: 290 nM
[2]
  IC50: 2040 nM

## O=C(O)CN1CCSC[C@H](NC(=O)[C@@H](CS)Cc2ccccc2)C1=O
[1]
  IC50: 100 nM

## O=C(O)CN1C(=O)[C@H](NC(=O)[C@@H](S)Cc2ccccc2)CS[C@@H]1c1ccccc1
[1]
  IC50: 20 nM
[3]
  ED50: 0.21 µmol/kg

## O=C(O)CN1C(=O)[C@@H](NC(=O)[C@@H](S)Cc2ccccc2)CS[C@H]1c1ccccc1
[1]
  IC50: 73 nM

## O=C(O)CN1C(=O)[C@@H](NC(=O)[C@@H](CS)Cc2ccccc2)CSC[C@H]1c1ccccc1
[1]
  IC50: 22 nM

## O=C(O)CN1C(=O)[C@@H](NC(=O)[C@@H](S)Cc2ccccc2)CS[C@@H]1c1ccccc1
[1]
  IC50: 25 nM
[3]
  ED50: 2.75 µmol/kg

## O=C(O)CN1C(=O)[C@@H](NC(=O)[C@@H](CS)Cc2ccccc2)CSc2ccccc21
[1]
  IC50: 17 nM
[3]
  ED50: 3.96 µmol/kg
[2]
  IC50: 1 nM

## CC1(C)CSC[C@H](NC(=O)[C@@H](S)Cc2ccccc2)C(=O)N1CC(=O)O
[1]
  IC50: 13.8 nM

## O=C(O)CN1CSCC[C@H](NC(=O)[C@@H](S)Cc2ccccc2)C1=O
[1]
  IC50: 61 nM
[2]
  IC50: 535 nM

## O=C(O)CN1C[C@@H](c2ccccc2)SC[C@H](NC(=O)[C@@H](S)Cc2ccccc2)C1=O
[1]
  IC50: 40 nM
[3]
  ED50: < 0.15 µmol/kg
[2]
  IC50: 99 nM

## O=C(O)CN1C(=O)[C@@H](NC(=O)[C@@H](S)Cc2ccccc2)CSc2ccccc21
[1]
  IC50: 13 nM
[3]
  ED50: 0.14 µmol/kg

## O=C(O)CN1C(=O)[C@@H](NC(=O)[C@@H](CS)Cc2ccccc2)CS[C@H]1c1ccccc1
[1]
  IC50: 115 nM
[2]
  IC50: 2.7 nM

## O=C(O)CN1C(=O)[C@@H](NC(=O)[C@@H](CS)Cc2ccccc2)CS[C@@H]1c1ccccc1
[1]
  IC50: 167 nM
[2]
  IC50: 2.5 nM

## O=C(O)CN1C(=O)[C@@H](NC(=O)[C@@H](S)Cc2ccccc2)CSC[C@H]1c1ccccc1
[1]
  IC50: 29 nM
[3]
  ED50: 0.49 µmol/kg

## O=C(O)CN1C(=O)[C@H](NC(=O)[C@@H](CS)Cc2ccccc2)CS[C@@H]1c1ccccc1
[1]
  IC50: 123 nM
[2]
  IC50: 126 nM

## O=C(O)CN1C[C@@H](c2ccccc2)SC[C@H](NC(=O)[C@@H](CS)Cc2ccccc2)C1=O
[1]
  IC50: 33 nM
[3]
  ED50: > 1.5 µmol/kg

## O=C(O)CN1CCSC[C@H](NC(=O)[C@@H](S)Cc2ccccc2)C1=O
[1]
  IC50: 67 nM
[3]
  ED50: 4.4 µmol/kg
[2]
  IC50: 244 nM

## C[C@@H]1SCC[C@H](NC(=O)[C@@H](S)Cc2ccccc2)C(=O)N1CC(=O)O
[1]
  IC50: 11.7 nM

From ChEMBL document CHEMBL1127970, “Dual metalloprotease inhibitors. IV. Utilization of thiazepines and thiazines as constrained peptidomimetic surrogates in mercaptoacyl dipeptides” (Bioorg Med Chem Lett, 1994)
